The source of these data is article PMC6904362, “Omeprazole Treatment Enhances Nitrogen Use Efficiency Through Increased Nitrogen Uptake and Assimilation in Corn” (Frontiers in Plant Science, 2019).

The experiment concerns T1, purified NADH-Nitrate Reductase (NR) from Arabidopsis thaliana.
T1 construct: gene NIA2; commercial Arabidopsis NR is probably recombinant NIA2
Nature of the experiment: NR activity assay, nitrite detection (sulphanilamide/NED, […] nm), nonlinear regression. It counts as biochemical. Conditions: 0.8 mM NADH, 50 mM Hepes/KOH pH 7.5, FAD, Na2MoO4; nitrate 0.08-1.5 mM; no omeprazole.

Regarding `O=[N+]([O-])O` [NO3 ^-, nitrate], the Km (commonly the concentration of substrate that gives half-maximal velocity) came out at 408 µM.
